# Data as given in patent US6358885B1, “Substituted phenylheterocyclic herbicides” (Mississippi State University, priority 1992, dated 2002).
# Experiments:
# Test in all cases: Test B preemergence/postemergence greenhouse plant response rating 0 to 10
# [1] = test system: barley; format: in vivo, Hordeum vulgare; settings: for Plant response rating, Barley: 0 to 10 scale
# Procedure, shortened: (§1)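 Planted seeds are treated preemergence with compound dissolved in a non-phytotoxic solvent, while postemergence applications go onto plants of two to eighteen cm. Plants stay in the greenhouse twelve to sixteen days and are then rated visually relative to controls.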
# [2] = test system: barnyardgrass; format: in vivo, Echinochloa crus-galli; settings: for Plant response rating, Barnyardgrass: 0 to 10 scale
# Procedure, shortened: as §1
# [3] = test system: bedstraw; format: in vivo, Galium aparine; settings: for Plant response rating, Bedstraw: 0 to 10 scale
# Procedure, shortened: as §1
# [4] = test system: blackgrass; format: in vivo, Alopecurus myosuroides; settings: for Plant response rating, Blackgrass: POSTEMERGENCE, 0 to 10 scale
# Procedure, shortened: as §1
# [5] = test system: cheatgrass; format: in vivo, Bromus secalinus; settings: for Plant response rating, Cheatgrass: 0 to 10 scale
# Procedure, shortened: as §1
# [6] = test system: chickweed; format: in vivo, Stellaria media; settings: for Plant response rating, Chickweed: 0 to 10 scale
# Procedure, shortened: as §1
# [7] = test system: cocklebur; format: in vivo, Xanthium pensylvanicum; settings: for Plant response rating, Cocklebur: 0 to 10 scale
# Procedure, shortened: as §1
# [8] = test system: corn; format: in vivo, Zea mays; settings: for Plant response rating, Corn: 0 to 10 scale
# Procedure, shortened: as §1
# [9] = test system: cotton; format: in vivo, Gossypium hirsutum; settings: for Plant response rating, Cotton: 0 to 10 scale
# Procedure, shortened: as §1
# [10] = test system: crabgrass; format: in vivo, Digitaria spp.; settings: for Plant response rating, Crabgrass: 0 to 10 scale
# Procedure, shortened: as §1
# [11] = test system: giant foxtail; format: in vivo, Setaria faberii; settings: for Plant response rating, Giant foxtail: 0 to 10 scale
# Procedure, shortened: as §1
# [12] = test system: lambsquarters; format: in vivo, Chenopodium album; settings: for Plant response rating, Lambsquarter: 0 to 10 scale
# Procedure, shortened: as §1
# [13] = test system: morningglory; format: in vivo, Ipomoea hederacea; settings: for Plant response rating, Morningglory: 0 to 10 scale
# Procedure, shortened: as §1
# [14] = test system: rape; format: in vivo, Brassica napus; settings: for Plant response rating, Rape: 0 to 10 scale
# Procedure, shortened: as §1
# [15] = test system: rice; format: in vivo, Oryza sativa; settings: for Plant response rating, Rice: 0 to 10 scale
# Procedure, shortened: as §1
# [16] = test system: sorghum; format: in vivo, Sorghum bicolor; settings: for Plant response rating, Sorghum: 0 to 10 scale
# Procedure, shortened: as §1
# [17] = test system: soybean; format: in vivo, Glycine max; settings: for Plant response rating, Soybean: 0 to 10 scale
# Procedure, shortened: as §1
# [18] = test system: sugar beet; format: in vivo, Beta vulgaris; settings: for Plant response rating, Sugar beet: 0 to 10 scale
# Procedure, shortened: as §1
# [19] = test system: velvetleaf; format: in vivo, Abutilon theophrasti; settings: for Plant response rating, Velvetleaf: 0 to 10 scale
# Procedure, shortened: as §1
# [20] = test system: wheat; format: in vivo, Triticum aestivum; settings: for Plant response rating, Wheat: 0 to 10 scale
# Procedure, shortened: as §1
# [21] = test system: wild buckwheat; format: in vivo, Polygonum convolvulus; settings: for Plant response rating, Wild buckwheat: 0 to 10 scale
# Procedure, shortened: as §1
# [22] = test system: wild oat; format: in vivo, Avena fatua; settings: for Plant response rating, Wild oat: 0 to 10 scale
# Procedure, shortened: as §1
# [23] = test system: purple nutsedge; format: in vivo, Cyperus rotundus; settings: for Plant response rating, Nutsedge: 0 to 10 scale
# Procedure, shortened: as §1
smiles,measurement,setting,value
Clc1cc(Cl)c(-c2nn3c(c2Cl)CCCC3)cc1OCC1CC1 [Compound 69],"Plant response rating, Barley","[1]; POSTEMERGENCE, Rate 50 g/ha",4
same,"Plant response rating, Barley","[1]; PREEMERGENCE, Rate 50 g/ha",0
same,"Plant response rating (0 to 10 scale), Barley","[1]; PREEMERGENCE, Rate 200 g/ha",0
same,"Plant response rating, Barley","[1]; Rate 200 g/ha, POSTEMERGENCE",4
same,"Plant response rating, Barnyardgrass","[2]; POSTEMERGENCE, Rate 50 g/ha",4
same,"Plant response rating, Barnyardgrass","[2]; PREEMERGENCE, Rate 50 g/ha",0
same,"Plant response rating (0 to 10 scale), Barnyardgrass","[2]; PREEMERGENCE, Rate 200 g/ha",1
same,"Plant response rating, Barnyardgrass","[2]; Rate 200 g/ha, POSTEMERGENCE",6
same,"Plant response rating, Bedstraw","[3]; POSTEMERGENCE, Rate 50 g/ha",5
same,"Plant response rating, Bedstraw","[3]; PREEMERGENCE, Rate 50 g/ha",0
same,"Plant response rating (0 to 10 scale), Bedstraw","[3]; PREEMERGENCE, Rate 200 g/ha",6
same,"Plant response rating, Bedstraw","[3]; Rate 200 g/ha, POSTEMERGENCE",7
same,"Plant response rating, Blackgrass",[4]; Rate 50 g/ha,3
same,"Plant response rating (0 to 10 scale), Blackgrass","[4]; PREEMERGENCE, Rate 200 g/ha",2
same,"Plant response rating, Blackgrass",[4]; Rate 200 g/ha,5
same,"Plant response rating, Cheatgrass","[5]; POSTEMERGENCE, Rate 50 g/ha",3
same,"Plant response rating, Cheatgrass","[5]; PREEMERGENCE, Rate 50 g/ha",0
same,"Plant response rating (0 to 10 scale), Cheatgrass","[5]; PREEMERGENCE, Rate 200 g/ha",4
same,"Plant response rating, Cheatgrass","[5]; Rate 200 g/ha, POSTEMERGENCE",6
same,"Plant response rating, Chickweed","[6]; POSTEMERGENCE, Rate 50 g/ha",2
same,"Plant response rating, Chickweed","[6]; PREEMERGENCE, Rate 50 g/ha",0
same,"Plant response rating (0 to 10 scale), Chickweed","[6]; PREEMERGENCE, Rate 200 g/ha",0
same,"Plant response rating, Chickweed","[6]; Rate 200 g/ha, POSTEMERGENCE",3
same,"Plant response rating, Cocklebur","[7]; POSTEMERGENCE, Rate 50 g/ha",8
same,"Plant response rating, Cocklebur","[7]; PREEMERGENCE, Rate 50 g/ha",0
same,"Plant response rating (0 to 10 scale), Cocklebur","[7]; PREEMERGENCE, Rate 200 g/ha",0
same,"Plant response rating, Cocklebur","[7]; Rate 200 g/ha, POSTEMERGENCE",8
same,"Plant response rating, Corn","[8]; POSTEMERGENCE, Rate 50 g/ha",3
same,"Plant response rating, Corn","[8]; PREEMERGENCE, Rate 50 g/ha",0
same,"Plant response rating (0 to 10 scale), Corn","[8]; PREEMERGENCE, Rate 200 g/ha",0
same,"Plant response rating, Corn","[8]; Rate 200 g/ha, POSTEMERGENCE",3
same,"Plant response rating, Cotton","[9]; POSTEMERGENCE, Rate 50 g/ha",10
same,"Plant response rating, Cotton","[9]; PREEMERGENCE, Rate 50 g/ha",0
same,"Plant response rating (0 to 10 scale), Cotton","[9]; PREEMERGENCE, Rate 200 g/ha",0
same,"Plant response rating, Cotton","[9]; Rate 200 g/ha, POSTEMERGENCE",10
same,"Plant response rating, Crabgrass","[10]; POSTEMERGENCE, Rate 50 g/ha",4
same,"Plant response rating, Crabgrass","[10]; PREEMERGENCE, Rate 50 g/ha",2
same,"Plant response rating (0 to 10 scale), Crabgrass","[10]; PREEMERGENCE, Rate 200 g/ha",5
same,"Plant response rating, Crabgrass","[10]; Rate 200 g/ha, POSTEMERGENCE",4
same,"Plant response rating, Giant foxtail","[11]; POSTEMERGENCE, Rate 50 g/ha",5
same,"Plant response rating, Giant foxtail","[11]; PREEMERGENCE, Rate 50 g/ha",2
same,"Plant response rating (0 to 10 scale), Giant foxtail","[11]; PREEMERGENCE, Rate 200 g/ha",5
same,"Plant response rating, Giant foxtail","[11]; Rate 200 g/ha, POSTEMERGENCE",5
same,"Plant response rating, Lambsquarter","[12]; POSTEMERGENCE, Rate 50 g/ha",8
same,"Plant response rating, Lambsquarter","[12]; PREEMERGENCE, Rate 50 g/ha",9
same,"Plant response rating (0 to 10 scale), Lambsquarter","[12]; PREEMERGENCE, Rate 200 g/ha",10
same,"Plant response rating, Lambsquarter","[12]; Rate 200 g/ha, POSTEMERGENCE",8
same,"Plant response rating, Morningglory","[13]; POSTEMERGENCE, Rate 50 g/ha",7
same,"Plant response rating, Morningglory","[13]; PREEMERGENCE, Rate 50 g/ha",0
same,"Plant response rating (0 to 10 scale), Morningglory","[13]; PREEMERGENCE, Rate 200 g/ha",0
same,"Plant response rating, Morningglory","[13]; Rate 200 g/ha, POSTEMERGENCE",7
same,"Plant response rating, Rape","[14]; POSTEMERGENCE, Rate 50 g/ha",6
same,"Plant response rating, Rape","[14]; PREEMERGENCE, Rate 50 g/ha",2
same,"Plant response rating (0 to 10 scale), Rape","[14]; PREEMERGENCE, Rate 200 g/ha",3
same,"Plant response rating, Rape","[14]; Rate 200 g/ha, POSTEMERGENCE",8
same,"Plant response rating, Rice","[15]; POSTEMERGENCE, Rate 50 g/ha",5
same,"Plant response rating, Rice","[15]; PREEMERGENCE, Rate 50 g/ha",0
same,"Plant response rating (0 to 10 scale), Rice","[15]; PREEMERGENCE, Rate 200 g/ha",0
same,"Plant response rating, Rice","[15]; Rate 200 g/ha, POSTEMERGENCE",6
same,"Plant response rating, Sorghum","[16]; POSTEMERGENCE, Rate 50 g/ha",4
same,"Plant response rating, Sorghum","[16]; PREEMERGENCE, Rate 50 g/ha",0
same,"Plant response rating (0 to 10 scale), Sorghum","[16]; PREEMERGENCE, Rate 200 g/ha",0
same,"Plant response rating, Sorghum","[16]; Rate 200 g/ha, POSTEMERGENCE",6
same,"Plant response rating, Soybean","[17]; POSTEMERGENCE, Rate 50 g/ha",2
same,"Plant response rating, Soybean","[17]; PREEMERGENCE, Rate 50 g/ha",0
same,"Plant response rating (0 to 10 scale), Soybean","[17]; PREEMERGENCE, Rate 200 g/ha",0
same,"Plant response rating, Soybean","[17]; Rate 200 g/ha, POSTEMERGENCE",5
same,"Plant response rating, Sugar beet","[18]; POSTEMERGENCE, Rate 50 g/ha",10
same,"Plant response rating, Sugar beet","[18]; PREEMERGENCE, Rate 50 g/ha",3
same,"Plant response rating (0 to 10 scale), Sugar beet","[18]; PREEMERGENCE, Rate 200 g/ha",6
same,"Plant response rating, Sugar beet","[18]; Rate 200 g/ha, POSTEMERGENCE",9
same,"Plant response rating, Velvetleaf","[19]; POSTEMERGENCE, Rate 50 g/ha",10
same,"Plant response rating, Velvetleaf","[19]; PREEMERGENCE, Rate 50 g/ha",1
same,"Plant response rating (0 to 10 scale), Velvetleaf","[19]; PREEMERGENCE, Rate 200 g/ha",9
same,"Plant response rating, Velvetleaf","[19]; Rate 200 g/ha, POSTEMERGENCE",9
same,"Plant response rating, Wheat","[20]; POSTEMERGENCE, Rate 50 g/ha",4
same,"Plant response rating, Wheat","[20]; PREEMERGENCE, Rate 50 g/ha",0
same,"Plant response rating (0 to 10 scale), Wheat","[20]; PREEMERGENCE, Rate 200 g/ha",2
same,"Plant response rating, Wheat","[20]; Rate 200 g/ha, POSTEMERGENCE",6
same,"Plant response rating, Wild buckwheat","[21]; POSTEMERGENCE, Rate 50 g/ha",10
same,"Plant response rating, Wild buckwheat","[21]; PREEMERGENCE, Rate 50 g/ha",0
same,"Plant response rating (0 to 10 scale), Wild buckwheat","[21]; PREEMERGENCE, Rate 200 g/ha",0
same,"Plant response rating, Wild buckwheat","[21]; Rate 200 g/ha, POSTEMERGENCE",10
same,"Plant response rating, Wild oat","[22]; POSTEMERGENCE, Rate 50 g/ha",3
same,"Plant response rating, Wild oat","[22]; PREEMERGENCE, Rate 50 g/ha",0
same,"Plant response rating (0 to 10 scale), Wild oat","[22]; PREEMERGENCE, Rate 200 g/ha",0
same,"Plant response rating, Wild oat","[22]; Rate 200 g/ha, POSTEMERGENCE",4
same,"Plant response rating, Nutsedge","[23]; POSTEMERGENCE, Rate 50 g/ha",2
same,"Plant response rating, Nutsedge","[23]; PREEMERGENCE, Rate 50 g/ha",0
same,"Plant response rating (0 to 10 scale), Nutsedge","[23]; PREEMERGENCE, Rate 200 g/ha",0
same,"Plant response rating, Nutsedge","[23]; Rate 200 g/ha, POSTEMERGENCE",2
